# PubChem BioAssay (NCI)
#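 A five-concentration, 48-hour dose response in 96-well plates underlies each endpoint, interpolated linearly between surrounding concentrations. Here, GI50 denotes the concentration required for 50% inhibition of growth. At the TGI there is no net growth.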
# Key:
# Assay in all cases: NCI anticancer screen, dose series, 48 h
# [1] = tested on: SK-MEL-5 melanoma
# [2] = tested on: T-47D breast
# [3] = tested on: HL-60(TB) leukemia
# [4] = tested on: 786-0 renal
# [5] = tested on: MDA-MB-231 breast
# [6] = tested on: HS 578T breast
# [7] = tested on: U251 CNS
# [8] = tested on: SNB-19 CNS
# [9] = tested on: SK-MEL-2 melanoma
# [10] = tested on: OVCAR-3 ovarian
# [11] = tested on: OVCAR-8 ovarian
# [12] = tested on: MALME-3M melanoma
# [13] = tested on: MDA-MB-435
# [14] = tested on: UACC-62 melanoma
# [15] = tested on: OVCAR-4 ovarian
# [16] = tested on: KM12 colon
# [17] = tested on: NCI-H460 lung
# [18] = tested on: K-562 leukemia
# [19] = tested on: HCC-2998 colon
# [20] = tested on: SF-295 CNS
# [21] = tested on: MCF7 breast
# [22] = tested on: SK-OV-3 ovarian
# [23] = tested on: A498 renal
# [24] = tested on: ACHN renal
# [25] = tested on: MOLT-4 leukemia
# [26] = tested on: SF-539 CNS
# [27] = tested on: RPMI-8226 leukemia
# [28] = tested on: CAKI-1 renal
# [29] = tested on: PC-3 prostate
# [30] = tested on: LOX IMVI melanoma
# [31] = tested on: OVCAR-5 ovarian
# [32] = tested on: NCI-H23 lung
# [33] = tested on: HCT-15 colon
# [34] = tested on: TK-10 renal
# [35] = tested on: NCI/ADR-RES ovarian
# [36] = tested on: SNB-75 CNS
# [37] = tested on: SN12C renal
# [38] = tested on: HOP-92 NSCLC
# [39] = tested on: HCT-116 colon
# [40] = tested on: RXF 393 renal
# [41] = tested on: UO-31 renal
# [42] = tested on: COLO 205 colon
# [43] = tested on: HT29 colon
# [44] = tested on: IGROV1 ovarian
# [45] = tested on: M14 melanoma
# [46] = tested on: BT-549 breast
# [47] = tested on: SF-268 CNS
# [48] = tested on: SW-620 colon
# [49] = tested on: NCI-H226 lung
# [50] = tested on: SK-MEL-28 melanoma
# [51] = tested on: DU-145 prostate
# [52] = tested on: HOP-62 NSCLC
# [53] = tested on: SR leukemia
# [54] = tested on: EKVX NSCLC
# [55] = tested on: A549 NSCLC
# [56] = tested on: NCI-H522 lung
# [57] = tested on: UACC-257 melanoma
# [58] = tested on: CCRF-CEM leukemia
smiles,measurement,setting,value
CCCC(c1nnnn1C1CCCCC1)N1CCN(C(=O)c2ccco2)CC1 (centres undefined),GI50,[1],> 100 µM
same,TGI,[1],> 100 µM
same,GI50,[2],> 100 µM
same,TGI,[2],> 100 µM
same,GI50,[3],> 100 µM
same,TGI,[3],> 100 µM
same,GI50,[4],> 100 µM
same,TGI,[4],> 100 µM
same,GI50,[5],> 100 µM
same,TGI,[5],> 100 µM
same,GI50,[6],> 100 µM
same,TGI,[6],> 100 µM
same,GI50,[7],> 100 µM
same,TGI,[7],> 100 µM
same,GI50,[8],> 100 µM
same,TGI,[8],> 100 µM
same,GI50,[9],> 100 µM
same,TGI,[9],> 100 µM
same,GI50,[10],> 100 µM
same,TGI,[10],> 100 µM
same,GI50,[11],> 100 µM
same,TGI,[11],> 100 µM
same,GI50,[12],> 100 µM
same,TGI,[12],> 100 µM
same,GI50,[13],> 100 µM
same,TGI,[13],> 100 µM
same,GI50,[14],> 100 µM
same,TGI,[14],> 100 µM
same,GI50,[15],> 100 µM
same,TGI,[15],> 100 µM
same,GI50,[16],> 100 µM
same,TGI,[16],> 100 µM
same,GI50,[17],> 100 µM
same,TGI,[17],> 100 µM
same,GI50,[18],> 100 µM
same,TGI,[18],> 100 µM
same,GI50,[19],> 100 µM
same,TGI,[19],> 100 µM
same,GI50,[20],> 100 µM
same,TGI,[20],> 100 µM
same,GI50,[21],> 100 µM
same,TGI,[21],> 100 µM
same,GI50,[22],> 100 µM
same,TGI,[22],> 100 µM
same,GI50,[23],> 100 µM
same,TGI,[23],> 100 µM
same,GI50,[24],> 100 µM
same,TGI,[24],> 100 µM
same,GI50,[25],> 100 µM
same,TGI,[25],> 100 µM
same,GI50,[26],> 100 µM
same,TGI,[26],> 100 µM
same,GI50,[27],> 100 µM
same,TGI,[27],> 100 µM
same,GI50,[28],> 100 µM
same,TGI,[28],> 100 µM
same,GI50,[29],> 100 µM
same,TGI,[29],> 100 µM
same,GI50,[30],> 100 µM
same,TGI,[30],> 100 µM
same,GI50,[31],> 100 µM
same,TGI,[31],> 100 µM
same,GI50,[32],> 100 µM
same,TGI,[32],> 100 µM
same,GI50,[33],> 100 µM
same,TGI,[33],> 100 µM
same,GI50,[34],> 100 µM
same,TGI,[34],> 100 µM
same,GI50,[35],> 100 µM
same,TGI,[35],> 100 µM
same,GI50,[36],> 100 µM
same,TGI,[36],> 100 µM
same,GI50,[37],> 100 µM
same,TGI,[37],> 100 µM
same,GI50,[38],> 100 µM
same,TGI,[38],> 100 µM
same,GI50,[39],> 100 µM
same,TGI,[39],> 100 µM
same,GI50,[40],> 100 µM
same,TGI,[40],> 100 µM
same,GI50,[41],> 100 µM
same,TGI,[41],> 100 µM
same,GI50,[42],> 100 µM
same,TGI,[42],> 100 µM
same,GI50,[43],> 100 µM
same,TGI,[43],> 100 µM
same,GI50,[44],> 100 µM
same,TGI,[44],> 100 µM
same,GI50,[45],> 100 µM
same,TGI,[45],> 100 µM
same,GI50,[46],> 100 µM
same,TGI,[46],> 100 µM
same,GI50,[47],> 100 µM
same,TGI,[47],> 100 µM
same,GI50,[48],> 100 µM
same,TGI,[48],> 100 µM
same,GI50,[49],> 100 µM
same,TGI,[49],> 100 µM
same,GI50,[50],> 100 µM
same,TGI,[50],> 100 µM
same,GI50,[51],> 100 µM
same,TGI,[51],> 100 µM
same,GI50,[52],> 100 µM
same,TGI,[52],> 100 µM
same,GI50,[53],> 100 µM
same,TGI,[53],> 100 µM
Cc1cc(NN)nc2n[nH]c(N)c12,TGI,[1],> 100 µM
same,TGI,[2],> 100 µM
same,TGI,[54],> 100 µM
same,TGI,[55],> 100 µM
same,TGI,[4],> 100 µM
same,TGI,[5],> 100 µM
same,TGI,[6],> 100 µM
same,TGI,[7],> 100 µM
same,TGI,[8],> 100 µM
same,TGI,[9],> 100 µM
same,TGI,[10],> 100 µM
same,TGI,[11],> 100 µM
same,TGI,[56],> 100 µM
same,TGI,[12],> 100 µM
same,TGI,[13],> 100 µM
same,TGI,[14],> 100 µM
same,TGI,[15],> 100 µM
same,TGI,[16],> 100 µM
same,TGI,[17],> 100 µM
same,TGI,[18],> 100 µM
same,TGI,[20],> 100 µM
same,TGI,[21],> 100 µM
same,TGI,[22],> 100 µM
same,TGI,[23],> 100 µM
same,TGI,[24],> 100 µM
same,TGI,[25],> 100 µM
same,TGI,[26],> 100 µM
same,TGI,[27],> 100 µM
same,TGI,[28],> 100 µM
same,TGI,[57],> 100 µM
same,TGI,[29],> 100 µM
same,TGI,[30],> 100 µM
same,TGI,[31],> 100 µM
same,TGI,[32],> 100 µM
same,TGI,[33],> 100 µM
same,TGI,[34],> 100 µM
same,TGI,[35],> 100 µM
same,TGI,[58],> 100 µM
same,TGI,[36],> 100 µM
same,TGI,[37],> 100 µM
same,TGI,[38],> 100 µM
same,TGI,[39],> 100 µM
same,TGI,[40],> 100 µM
same,TGI,[41],> 100 µM
same,TGI,[42],> 100 µM
same,TGI,[43],> 100 µM
same,TGI,[44],> 100 µM
same,TGI,[45],> 100 µM
same,TGI,[46],> 100 µM
same,TGI,[47],> 100 µM
same,TGI,[48],> 100 µM
same,TGI,[49],> 100 µM
same,TGI,[50],> 100 µM
same,TGI,[51],> 100 µM
same,TGI,[52],> 100 µM
same,TGI,[53],> 100 µM
Cc1ccc(C2(c3ccc(C)cc3)SC(=C(C#N)C#N)c3ccccc32)cc1,TGI,[1],> 100 µM
same,TGI,[2],> 100 µM
same,TGI,[3],> 100 µM
same,TGI,[54],> 100 µM
same,TGI,[55],> 100 µM
same,TGI,[4],> 100 µM
same,TGI,[5],> 100 µM
same,TGI,[6],> 100 µM
same,TGI,[7],> 100 µM
same,TGI,[8],> 100 µM
same,TGI,[9],> 100 µM
same,TGI,[10],> 100 µM
same,TGI,[11],> 100 µM
same,TGI,[12],> 100 µM
same,TGI,[13],> 100 µM
same,TGI,[14],> 100 µM
same,TGI,[16],> 100 µM
same,TGI,[17],> 100 µM
same,TGI,[18],> 100 µM
same,TGI,[19],> 100 µM
same,TGI,[20],> 100 µM
same,TGI,[21],> 100 µM
same,TGI,[22],> 100 µM
same,TGI,[23],> 100 µM
same,TGI,[24],> 100 µM
same,TGI,[25],> 100 µM
same,TGI,[26],> 100 µM
same,TGI,[29],> 100 µM
same,TGI,[31],> 100 µM
same,TGI,[32],> 100 µM
same,TGI,[33],> 100 µM
same,TGI,[34],> 100 µM
same,TGI,[35],> 100 µM
same,TGI,[58],> 100 µM
same,TGI,[37],> 100 µM
same,TGI,[38],> 100 µM
same,TGI,[39],> 100 µM
same,TGI,[40],> 100 µM
same,TGI,[41],> 100 µM
same,TGI,[43],> 100 µM
same,TGI,[44],> 100 µM
same,TGI,[45],> 100 µM
same,TGI,[46],> 100 µM
same,TGI,[47],> 100 µM
same,TGI,[48],> 100 µM
same,TGI,[49],> 100 µM
same,TGI,[50],> 100 µM
same,TGI,[51],> 100 µM
same,TGI,[52],> 100 µM
same,TGI,[53],> 100 µM
O=C1Cc2c([nH]c3ccccc23)C2(CC3CCCCN13)OCCO2 (centres undefined),TGI,[1],> 100 µM
same,TGI,[2],> 100 µM
same,TGI,[54],> 100 µM
same,TGI,[55],> 100 µM
same,TGI,[4],> 100 µM
same,TGI,[5],> 100 µM
same,TGI,[6],> 100 µM
same,TGI,[7],> 100 µM
same,TGI,[8],> 100 µM
same,TGI,[9],> 100 µM
same,TGI,[10],> 100 µM
same,TGI,[11],> 100 µM
same,TGI,[12],> 100 µM
same,TGI,[13],> 100 µM
same,TGI,[14],> 100 µM
same,TGI,[15],> 100 µM
same,TGI,[16],> 100 µM
same,TGI,[17],> 100 µM
same,TGI,[19],> 100 µM
same,TGI,[20],> 100 µM
same,TGI,[21],> 100 µM
same,TGI,[22],> 100 µM
same,TGI,[23],> 100 µM
same,TGI,[24],> 100 µM
same,TGI,[27],> 100 µM
same,TGI,[28],> 100 µM
same,TGI,[57],> 100 µM
same,TGI,[29],> 100 µM
same,TGI,[31],> 100 µM
same,TGI,[32],> 100 µM
same,TGI,[33],> 100 µM
same,TGI,[34],> 100 µM
same,TGI,[35],> 100 µM
same,TGI,[58],> 100 µM
same,TGI,[36],> 100 µM
same,TGI,[37],> 100 µM
same,TGI,[38],> 100 µM
same,TGI,[39],> 100 µM
same,TGI,[40],> 100 µM
same,TGI,[41],> 100 µM
same,TGI,[42],> 100 µM
same,TGI,[43],> 100 µM
same,TGI,[44],> 100 µM
same,TGI,[45],> 100 µM
same,TGI,[46],> 100 µM
same,TGI,[47],> 100 µM
same,TGI,[48],> 100 µM
same,TGI,[49],> 100 µM
same,TGI,[50],> 100 µM
same,TGI,[51],> 100 µM
same,TGI,[52],> 100 µM
same,TGI,[53],> 100 µM
